# Laboratory results: ChEMBL document CHEMBL1201862, “PubChem BioAssay data set” (2004)
# Calls of active or inactive are those of the source.
# How the values were obtained:
# [1] = biological target: T1, Hexokinase HKDC1 (Homo sapiens, UniProt Q2TB90); experiment: HKDC1 hexokinase activators, dose response, biochemical, W721R variant (AID 504730); format: functional
# T1 sequence (Q2TB90 whole entry): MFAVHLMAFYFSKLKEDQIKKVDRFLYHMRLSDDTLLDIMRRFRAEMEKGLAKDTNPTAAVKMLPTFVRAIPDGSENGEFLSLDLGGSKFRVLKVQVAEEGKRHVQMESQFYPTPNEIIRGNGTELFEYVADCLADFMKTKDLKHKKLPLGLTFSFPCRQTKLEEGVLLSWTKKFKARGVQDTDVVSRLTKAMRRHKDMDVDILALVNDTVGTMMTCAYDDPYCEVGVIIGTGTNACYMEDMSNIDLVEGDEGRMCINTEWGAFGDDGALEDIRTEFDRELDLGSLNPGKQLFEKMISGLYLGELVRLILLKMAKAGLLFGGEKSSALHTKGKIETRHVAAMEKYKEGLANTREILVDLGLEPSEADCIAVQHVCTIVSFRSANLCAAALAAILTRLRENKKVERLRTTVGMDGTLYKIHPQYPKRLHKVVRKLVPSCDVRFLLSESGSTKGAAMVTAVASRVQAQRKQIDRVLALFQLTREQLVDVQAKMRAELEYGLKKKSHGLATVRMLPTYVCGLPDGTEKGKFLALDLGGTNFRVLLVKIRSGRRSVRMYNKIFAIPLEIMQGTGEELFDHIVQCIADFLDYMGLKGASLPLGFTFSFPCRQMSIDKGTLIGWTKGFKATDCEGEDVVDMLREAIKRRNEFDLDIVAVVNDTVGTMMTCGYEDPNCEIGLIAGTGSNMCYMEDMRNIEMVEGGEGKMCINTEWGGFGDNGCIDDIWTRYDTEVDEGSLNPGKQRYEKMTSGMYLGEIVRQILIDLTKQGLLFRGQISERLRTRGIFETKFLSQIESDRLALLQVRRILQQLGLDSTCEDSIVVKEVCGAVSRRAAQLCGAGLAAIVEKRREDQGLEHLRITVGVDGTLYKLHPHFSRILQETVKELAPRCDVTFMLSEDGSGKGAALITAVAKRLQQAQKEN
# [2] = biological target: T2, Hexokinase-1 (Homo sapiens, UniProt P19367); experiment: hexokinase 1 activators, dose response, selectivity assay for HKDC1 activator project, biochemical (AID 504762); format: functional
# T2 sequence (P19367 whole entry): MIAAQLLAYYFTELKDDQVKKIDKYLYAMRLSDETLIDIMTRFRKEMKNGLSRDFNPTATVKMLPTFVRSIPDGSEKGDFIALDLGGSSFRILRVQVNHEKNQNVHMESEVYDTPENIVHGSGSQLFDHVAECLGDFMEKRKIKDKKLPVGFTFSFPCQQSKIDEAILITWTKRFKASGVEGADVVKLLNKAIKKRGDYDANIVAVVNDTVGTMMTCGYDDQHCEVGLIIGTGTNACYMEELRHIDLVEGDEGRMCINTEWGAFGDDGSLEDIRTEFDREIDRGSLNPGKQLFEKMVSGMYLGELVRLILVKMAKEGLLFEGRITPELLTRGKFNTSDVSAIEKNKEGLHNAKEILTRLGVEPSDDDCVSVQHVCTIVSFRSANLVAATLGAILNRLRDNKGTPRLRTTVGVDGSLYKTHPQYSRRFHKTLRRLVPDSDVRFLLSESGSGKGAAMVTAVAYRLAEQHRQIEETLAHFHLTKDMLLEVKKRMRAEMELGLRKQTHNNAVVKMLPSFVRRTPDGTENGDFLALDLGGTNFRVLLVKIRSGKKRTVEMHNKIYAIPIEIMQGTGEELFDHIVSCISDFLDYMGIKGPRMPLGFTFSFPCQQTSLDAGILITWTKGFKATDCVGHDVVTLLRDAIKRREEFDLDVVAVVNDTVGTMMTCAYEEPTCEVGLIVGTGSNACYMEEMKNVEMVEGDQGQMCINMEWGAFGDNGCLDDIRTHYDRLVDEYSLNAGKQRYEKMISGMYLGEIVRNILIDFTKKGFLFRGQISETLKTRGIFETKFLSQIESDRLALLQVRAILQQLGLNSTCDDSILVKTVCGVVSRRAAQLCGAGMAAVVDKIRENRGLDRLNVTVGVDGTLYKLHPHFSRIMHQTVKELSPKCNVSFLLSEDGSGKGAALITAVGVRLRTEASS
# [3] = biological target: Intestinal-type alkaline phosphatase (Homo sapiens, UniProt P09923); experiment: activation of human intestinal alkaline phosphatase – biochemical, dose response (AID 488873); format: functional
# [4] = biological target: Intestinal-type alkaline phosphatase (Mus musculus, UniProt P24822); experiment: mouse intestinal alkaline phosphatase activators, dose response, biochemical, luminescence, uHTS hits (AID 488783); format: functional
# [5] = biological target: T3, Alkaline phosphatase, tissue-nonspecific isozyme (Homo sapiens, UniProt P05186); experiment: TNAP enzyme activators, dose response, selectivity assay for mouse IAP activator project, biochemical, TNAP isozyme, mouse IAP uHTS hits (AID 488880); format: functional
# T3 sequence (P05186 whole entry): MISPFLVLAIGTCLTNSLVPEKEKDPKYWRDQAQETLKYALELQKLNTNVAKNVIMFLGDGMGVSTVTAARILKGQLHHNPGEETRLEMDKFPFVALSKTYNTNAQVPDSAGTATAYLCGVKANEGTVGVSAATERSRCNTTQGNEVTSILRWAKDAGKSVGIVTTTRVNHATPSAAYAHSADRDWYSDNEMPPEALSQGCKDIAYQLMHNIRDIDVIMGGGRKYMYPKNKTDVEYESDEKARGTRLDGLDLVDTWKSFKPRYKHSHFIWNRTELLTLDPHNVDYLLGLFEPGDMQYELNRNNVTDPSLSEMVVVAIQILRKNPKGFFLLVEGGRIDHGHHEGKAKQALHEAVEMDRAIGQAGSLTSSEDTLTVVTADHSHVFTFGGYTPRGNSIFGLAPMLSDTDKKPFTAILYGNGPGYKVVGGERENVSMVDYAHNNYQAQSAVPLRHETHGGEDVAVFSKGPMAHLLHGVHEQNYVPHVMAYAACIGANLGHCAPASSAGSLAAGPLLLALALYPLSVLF
# [6] = biological target: 26S proteasome non-ATPase regulatory subunit 14 (Homo sapiens, UniProt O00487); experiment: inhibition of proteasome subunit RPN11 – biochemical, fluorescence polarization, uHTS hits, confirmation (AID 602368); format: functional
# [7] = biological target: 72 kDa type IV collagenase (Homo sapiens, UniProt P08253); experiment: Dose Response validation of uHTS RPN11 inhibitor hits using a MMP-2 Fluorescence assay.; format: functional
# [8] = biological target: Prothrombin (Bos taurus, UniProt P00735); experiment: thrombin inhibition, dose response, biochemical, fluorescence polarization, uHTS hits (AID 602369); format: functional
# [9] = biological target: T4, Short transient receptor potential channel 4 (Mus musculus, UniProt Q9QUQ5); experiment: mouse TRPC4 channel activators, dose response, cell-based, HEK293 TRPC4/mu-opioid, Fluo-4 calcium (AID 434937); format: functional
# T4 sequence (Q9QUQ5 whole entry): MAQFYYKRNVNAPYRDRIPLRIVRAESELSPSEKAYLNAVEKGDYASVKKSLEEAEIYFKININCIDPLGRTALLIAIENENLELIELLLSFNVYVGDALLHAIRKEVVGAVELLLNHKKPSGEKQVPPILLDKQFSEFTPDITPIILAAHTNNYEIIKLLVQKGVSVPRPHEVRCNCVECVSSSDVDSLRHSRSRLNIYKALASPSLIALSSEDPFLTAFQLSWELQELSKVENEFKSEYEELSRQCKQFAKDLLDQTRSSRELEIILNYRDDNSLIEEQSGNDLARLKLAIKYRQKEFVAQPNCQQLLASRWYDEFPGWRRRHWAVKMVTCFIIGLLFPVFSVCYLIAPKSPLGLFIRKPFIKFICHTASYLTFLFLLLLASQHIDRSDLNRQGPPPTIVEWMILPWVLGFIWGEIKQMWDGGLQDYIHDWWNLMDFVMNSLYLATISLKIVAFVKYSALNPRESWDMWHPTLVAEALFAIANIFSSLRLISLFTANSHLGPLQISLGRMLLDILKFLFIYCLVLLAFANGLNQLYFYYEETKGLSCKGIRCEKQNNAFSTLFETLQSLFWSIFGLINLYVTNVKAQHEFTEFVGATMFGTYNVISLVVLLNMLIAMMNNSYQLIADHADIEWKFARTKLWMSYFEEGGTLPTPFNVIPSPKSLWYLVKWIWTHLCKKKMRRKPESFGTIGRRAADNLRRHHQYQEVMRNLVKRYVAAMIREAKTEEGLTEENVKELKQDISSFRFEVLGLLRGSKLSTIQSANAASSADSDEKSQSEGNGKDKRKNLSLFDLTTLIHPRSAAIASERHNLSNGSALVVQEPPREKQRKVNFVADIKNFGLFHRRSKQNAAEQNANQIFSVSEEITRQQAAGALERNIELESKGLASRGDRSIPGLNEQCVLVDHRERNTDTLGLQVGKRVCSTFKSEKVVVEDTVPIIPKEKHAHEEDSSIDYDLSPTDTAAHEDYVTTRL
# [10] = biological target: T5, Corticotropin-releasing factor receptor 2/Corticotropin-releasing factor-binding protein (Homo sapiens, UniProt P24387+Q13324); experiment: activators of CRF receptor 2 with binding protein – uHTS hits, confirmation (AID 602473); format: functional; conditions: read-out: EC50_Mean
# T5 sequence (Q13324 whole entry): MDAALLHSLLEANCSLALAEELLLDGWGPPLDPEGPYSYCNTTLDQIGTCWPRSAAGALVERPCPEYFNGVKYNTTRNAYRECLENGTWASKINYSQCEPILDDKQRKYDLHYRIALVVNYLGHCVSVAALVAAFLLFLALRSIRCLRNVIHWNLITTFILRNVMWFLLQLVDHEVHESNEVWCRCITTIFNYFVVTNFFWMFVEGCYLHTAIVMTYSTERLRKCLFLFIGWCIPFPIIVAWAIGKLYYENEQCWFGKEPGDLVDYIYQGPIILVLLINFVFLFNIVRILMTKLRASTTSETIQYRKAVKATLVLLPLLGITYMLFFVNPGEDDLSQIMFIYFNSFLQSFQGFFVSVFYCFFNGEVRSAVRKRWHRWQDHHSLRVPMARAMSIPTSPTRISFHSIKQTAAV
# T5 sequence (P24387 whole entry): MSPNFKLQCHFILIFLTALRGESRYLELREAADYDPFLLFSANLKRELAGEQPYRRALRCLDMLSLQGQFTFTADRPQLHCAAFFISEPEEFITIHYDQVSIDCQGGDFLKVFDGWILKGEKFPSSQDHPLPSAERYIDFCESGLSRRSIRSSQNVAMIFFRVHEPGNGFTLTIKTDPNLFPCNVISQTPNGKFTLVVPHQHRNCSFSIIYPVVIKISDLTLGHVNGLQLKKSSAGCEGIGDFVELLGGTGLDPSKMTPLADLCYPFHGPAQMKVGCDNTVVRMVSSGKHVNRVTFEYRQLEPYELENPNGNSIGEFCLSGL
# [11] = tested on: Streptococcus sp. 'group A'; experiment: growth inhibition of control SK(-) GAS strain, dose response, counter-screen for streptokinase expression inhibitor project, luminescence, kanamycin, BacTiterGlo, confirmation (AID 1900); format: functional, organism-based
# [12] = cells; format: functional, cell-based
# [13] = Luminescence-based counterscreen assay for KLF5 inhibitors: dose response cell-based high throughput screening assay to identify cytotoxic compounds using the IEC-6 intestinal epithelial cell line. [Related pubchem assays: 1700 (Primary screen.), 1834 (Confirmation screen.), 1858 (Summary AID.), 1905 (Counterscreen.)]; format: functional
# [14] = cells; format: functional, cell-based; remark: listed apart in the source
# [15] = tested on: Streptococcus; experiment: Group A Streptococcus viability loss, dose response, counter-screen for streptokinase expression inhibitor project, luminescence, BacTiterGlo (AID 1915); format: functional, organism-based;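 note: potency for reduction of bacterial viability or growth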
# [16] = biological target: Exodeoxyribonuclease V (Escherichia coli (strain K12), UniProt P04993+P07648+P08394); experiment: E. coli RecBCD inhibitors, dose response, counter-screen for AddAB inhibitor project, absorbance, V66 E. coli, mutant T4 phage (AID 492957); format: functional, cell-based, Escherichia coli str. K-12 substr. MG1655
# [17] = THP-1 cell cytotoxicity, dose response, cytotoxicity control for non-replicating M. tuberculosis project (AID 489025); format: functional
# [18] = HepG2 cell cytotoxicity, dose response, cytotoxicity control for non-replicating M. tuberculosis project (AID 489018); format: functional; conditions: Mycobacterium tuberculosis
# [19] = Vero E6 cell cytotoxicity, dose response, cytotoxicity control for non-replicating M. tuberculosis project, secondary assay (AID 492998); format: functional, VeroE6; conditions: Vero C1008
# [20] = cytotoxicity in HEK-293T cells, dose response, cytotoxicity control for TCR NF-kB inhibitor project, luminescence, T-cell screen hits (AID 489026); format: functional, cell-based;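 note: cells exposed to compound about 14 hours before the viability readout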
# [21] = Counterscreen for AddAB inhibitors: absorbance-based bacterial cell-based high throughput dose response assay for inhibitors of bacterial viability. [Related pubchem assays (depositor defined):AID435030, AID449728, AID449731, AID488942, AID488955, AID488956]; format: functional
# [22] = tested on: HEK293; experiment: inhibitors of LMP1-driven NF-kB reporter, dose response, cell-based, HEK293, luciferase, cherry-pick (AID 588343); format: functional; conditions: Homo sapiens
# [23] = tested on: INS1; experiment: beta cell apoptosis inhibitors, cytokine rescue, dose response, luminescence, retest (AID 449756); format: functional, cell-based; conditions: Rattus norvegicus;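 note: cell death triggered by IL-1 beta plus TNF-alpha plus IFN-gamma mixture; protective hits raise ATP signal compared with cytokine alone wells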
# Sequence of 26S proteasome non-ATPase regulatory subunit 14 (O00487 whole entry): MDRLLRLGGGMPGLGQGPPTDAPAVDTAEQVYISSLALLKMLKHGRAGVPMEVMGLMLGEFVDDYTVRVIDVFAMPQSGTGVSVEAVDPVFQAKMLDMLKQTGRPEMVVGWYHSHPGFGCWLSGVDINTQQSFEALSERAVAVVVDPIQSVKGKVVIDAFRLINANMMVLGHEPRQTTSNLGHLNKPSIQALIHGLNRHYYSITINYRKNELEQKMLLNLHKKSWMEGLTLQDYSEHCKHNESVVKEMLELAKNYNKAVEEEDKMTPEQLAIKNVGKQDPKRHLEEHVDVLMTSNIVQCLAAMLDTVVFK
# Sequence of Exodeoxyribonuclease V (P04993 whole entry): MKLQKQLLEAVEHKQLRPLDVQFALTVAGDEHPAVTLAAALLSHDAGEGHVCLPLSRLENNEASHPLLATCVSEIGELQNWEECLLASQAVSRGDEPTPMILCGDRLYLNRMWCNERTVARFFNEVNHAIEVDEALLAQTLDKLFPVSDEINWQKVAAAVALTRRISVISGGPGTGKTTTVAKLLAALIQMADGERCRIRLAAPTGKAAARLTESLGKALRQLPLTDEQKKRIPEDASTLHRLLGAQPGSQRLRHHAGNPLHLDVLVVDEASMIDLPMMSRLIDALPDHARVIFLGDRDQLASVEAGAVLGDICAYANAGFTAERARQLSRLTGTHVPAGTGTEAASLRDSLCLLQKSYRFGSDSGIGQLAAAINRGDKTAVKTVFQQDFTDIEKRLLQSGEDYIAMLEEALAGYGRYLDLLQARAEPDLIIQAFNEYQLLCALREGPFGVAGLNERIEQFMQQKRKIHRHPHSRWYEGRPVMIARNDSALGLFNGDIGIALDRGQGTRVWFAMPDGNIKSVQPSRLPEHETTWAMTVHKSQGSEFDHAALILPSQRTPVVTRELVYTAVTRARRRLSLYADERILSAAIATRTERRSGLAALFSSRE
# Sequence of Exodeoxyribonuclease V (P07648 whole entry): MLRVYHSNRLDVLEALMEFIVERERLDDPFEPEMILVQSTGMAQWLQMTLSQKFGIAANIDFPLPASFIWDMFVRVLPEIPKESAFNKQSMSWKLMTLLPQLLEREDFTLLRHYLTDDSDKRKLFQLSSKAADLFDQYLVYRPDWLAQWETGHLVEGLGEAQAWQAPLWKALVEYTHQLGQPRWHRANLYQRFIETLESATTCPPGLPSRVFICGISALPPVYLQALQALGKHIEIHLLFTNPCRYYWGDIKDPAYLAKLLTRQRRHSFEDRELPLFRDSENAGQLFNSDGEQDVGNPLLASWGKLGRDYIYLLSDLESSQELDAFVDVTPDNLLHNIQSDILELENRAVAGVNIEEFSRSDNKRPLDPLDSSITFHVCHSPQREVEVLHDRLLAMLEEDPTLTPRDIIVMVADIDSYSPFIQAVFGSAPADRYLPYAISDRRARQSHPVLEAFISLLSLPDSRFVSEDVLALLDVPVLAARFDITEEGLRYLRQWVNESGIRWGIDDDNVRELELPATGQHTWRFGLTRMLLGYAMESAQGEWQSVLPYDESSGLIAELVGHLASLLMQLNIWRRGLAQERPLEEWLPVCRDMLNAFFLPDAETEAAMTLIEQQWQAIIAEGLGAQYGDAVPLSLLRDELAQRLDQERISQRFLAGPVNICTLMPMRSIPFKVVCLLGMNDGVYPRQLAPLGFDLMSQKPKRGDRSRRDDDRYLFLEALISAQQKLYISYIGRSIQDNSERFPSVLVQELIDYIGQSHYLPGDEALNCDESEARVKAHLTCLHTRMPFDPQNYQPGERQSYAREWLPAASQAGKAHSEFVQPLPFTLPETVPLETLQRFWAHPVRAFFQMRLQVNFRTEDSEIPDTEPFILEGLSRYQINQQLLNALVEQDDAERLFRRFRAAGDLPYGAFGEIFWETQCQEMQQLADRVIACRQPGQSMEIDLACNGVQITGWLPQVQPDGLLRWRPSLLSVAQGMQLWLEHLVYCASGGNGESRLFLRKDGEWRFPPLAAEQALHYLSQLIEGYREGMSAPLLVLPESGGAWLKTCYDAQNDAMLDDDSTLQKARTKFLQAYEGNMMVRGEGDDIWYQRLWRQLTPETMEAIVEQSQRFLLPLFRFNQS
# Sequence of Exodeoxyribonuclease V (P08394 whole entry): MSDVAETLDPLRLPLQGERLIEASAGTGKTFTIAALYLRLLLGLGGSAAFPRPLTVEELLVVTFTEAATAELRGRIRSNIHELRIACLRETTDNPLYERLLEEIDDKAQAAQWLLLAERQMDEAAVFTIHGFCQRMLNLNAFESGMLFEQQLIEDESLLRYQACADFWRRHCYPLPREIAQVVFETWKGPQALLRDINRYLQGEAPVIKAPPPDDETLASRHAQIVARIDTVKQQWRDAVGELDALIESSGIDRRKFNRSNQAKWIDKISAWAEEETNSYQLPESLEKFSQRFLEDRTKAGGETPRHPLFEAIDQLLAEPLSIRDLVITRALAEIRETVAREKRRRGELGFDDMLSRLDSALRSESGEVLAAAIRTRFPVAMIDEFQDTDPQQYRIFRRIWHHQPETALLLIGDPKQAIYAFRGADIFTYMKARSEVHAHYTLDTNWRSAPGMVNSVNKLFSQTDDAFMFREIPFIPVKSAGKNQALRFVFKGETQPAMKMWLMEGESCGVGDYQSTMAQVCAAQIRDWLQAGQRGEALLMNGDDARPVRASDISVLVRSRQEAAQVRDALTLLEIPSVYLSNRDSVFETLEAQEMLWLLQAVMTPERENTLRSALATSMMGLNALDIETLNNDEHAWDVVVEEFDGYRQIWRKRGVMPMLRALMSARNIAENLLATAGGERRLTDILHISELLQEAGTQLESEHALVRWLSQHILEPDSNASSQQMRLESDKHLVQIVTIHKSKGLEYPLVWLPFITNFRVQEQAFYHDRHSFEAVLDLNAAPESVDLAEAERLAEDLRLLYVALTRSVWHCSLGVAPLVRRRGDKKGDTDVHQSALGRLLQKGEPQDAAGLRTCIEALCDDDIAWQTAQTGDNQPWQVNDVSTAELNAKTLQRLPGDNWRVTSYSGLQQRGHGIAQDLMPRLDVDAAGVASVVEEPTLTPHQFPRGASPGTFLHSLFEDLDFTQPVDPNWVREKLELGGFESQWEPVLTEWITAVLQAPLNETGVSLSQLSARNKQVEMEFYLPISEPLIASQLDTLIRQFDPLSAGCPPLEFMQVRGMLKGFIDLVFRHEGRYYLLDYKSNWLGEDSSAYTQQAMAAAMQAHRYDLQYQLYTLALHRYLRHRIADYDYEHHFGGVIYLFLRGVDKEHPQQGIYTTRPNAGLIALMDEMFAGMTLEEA
# Sequence of 72 kDa type IV collagenase (P08253 whole entry): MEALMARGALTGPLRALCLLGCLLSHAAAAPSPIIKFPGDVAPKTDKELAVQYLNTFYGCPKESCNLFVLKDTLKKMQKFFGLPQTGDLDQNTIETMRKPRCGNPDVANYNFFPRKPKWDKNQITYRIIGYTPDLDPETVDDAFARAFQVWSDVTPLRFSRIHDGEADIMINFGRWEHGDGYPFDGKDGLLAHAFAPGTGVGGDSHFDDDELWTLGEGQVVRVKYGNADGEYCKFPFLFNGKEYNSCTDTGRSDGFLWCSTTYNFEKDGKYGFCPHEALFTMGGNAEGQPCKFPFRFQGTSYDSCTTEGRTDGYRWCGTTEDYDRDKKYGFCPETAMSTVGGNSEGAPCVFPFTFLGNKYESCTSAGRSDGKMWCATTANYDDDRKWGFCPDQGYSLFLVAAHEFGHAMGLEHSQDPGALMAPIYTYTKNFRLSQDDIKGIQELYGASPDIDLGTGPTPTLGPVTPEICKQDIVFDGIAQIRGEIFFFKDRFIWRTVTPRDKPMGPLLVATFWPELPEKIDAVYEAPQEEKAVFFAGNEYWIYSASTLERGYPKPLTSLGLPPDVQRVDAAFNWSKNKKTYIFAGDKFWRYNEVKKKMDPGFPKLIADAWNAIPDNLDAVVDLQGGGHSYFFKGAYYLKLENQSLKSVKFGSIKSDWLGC
# Sequence of Intestinal-type alkaline phosphatase (Mus musculus, UniProt P24822) (P24822 whole entry): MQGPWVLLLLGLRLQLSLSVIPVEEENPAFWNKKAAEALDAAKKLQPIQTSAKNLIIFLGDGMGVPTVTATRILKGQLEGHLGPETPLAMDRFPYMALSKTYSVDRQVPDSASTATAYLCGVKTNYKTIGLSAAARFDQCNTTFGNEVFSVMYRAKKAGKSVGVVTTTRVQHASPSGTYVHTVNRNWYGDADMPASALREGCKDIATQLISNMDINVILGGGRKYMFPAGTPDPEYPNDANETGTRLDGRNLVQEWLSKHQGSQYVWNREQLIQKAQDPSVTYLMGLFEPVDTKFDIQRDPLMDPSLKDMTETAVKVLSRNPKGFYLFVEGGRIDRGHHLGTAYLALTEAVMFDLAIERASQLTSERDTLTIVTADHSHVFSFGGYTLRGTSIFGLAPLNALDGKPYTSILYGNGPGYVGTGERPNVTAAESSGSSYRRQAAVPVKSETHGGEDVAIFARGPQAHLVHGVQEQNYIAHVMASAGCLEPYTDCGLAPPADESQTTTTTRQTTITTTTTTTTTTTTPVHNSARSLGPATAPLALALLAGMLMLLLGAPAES
# Sequence of Intestinal-type alkaline phosphatase (Homo sapiens, UniProt P09923) (P09923 whole entry): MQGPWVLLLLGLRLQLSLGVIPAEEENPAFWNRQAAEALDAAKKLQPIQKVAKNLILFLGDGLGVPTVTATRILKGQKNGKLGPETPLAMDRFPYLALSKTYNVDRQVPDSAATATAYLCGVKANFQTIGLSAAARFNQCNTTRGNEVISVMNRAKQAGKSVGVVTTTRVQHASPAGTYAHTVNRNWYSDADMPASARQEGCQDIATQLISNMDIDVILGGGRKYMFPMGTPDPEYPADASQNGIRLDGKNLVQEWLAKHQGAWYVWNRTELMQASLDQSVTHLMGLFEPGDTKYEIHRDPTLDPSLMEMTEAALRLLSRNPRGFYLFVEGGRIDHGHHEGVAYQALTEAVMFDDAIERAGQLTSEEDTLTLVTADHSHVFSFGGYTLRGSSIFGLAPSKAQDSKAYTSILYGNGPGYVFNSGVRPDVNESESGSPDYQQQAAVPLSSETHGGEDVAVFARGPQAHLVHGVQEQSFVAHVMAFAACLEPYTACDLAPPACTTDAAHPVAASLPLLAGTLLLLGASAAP
structure (smiles),measurement,setting,value
COC(=O)Cn1c2ccc(F)cc2c2nc(C)sc21,EC50,[1],8.74 µM (active)
same,EC50,[2],8.1 µM (active)
CN(CCO)c1ccc(C=NNc2ccc([N+](=O)[O-])cc2S(=O)(=O)Nc2ccccc2C(=O)O)cc1,EC50,[3],26.6 µM (active)
same,EC50,[4],17.5 µM (active)
same,EC50,[5],19.7 µM (active)
same,IC50,[6],37 µM (active)
same,IC50,[7],> 100 µM (inactive)
same,IC50,[8],36.4 µM (active)
CCC1(c2ccc(F)cc2)NC(=O)N(CC(=O)c2cc(C)n(C3CC3)c2C)C1=O (stereo not drawn),EC50,[9],5.96 µM (active)
same,EC50,[10],4.88 µM (active)
O=C(N/N=C/c1c(O)ccc2ccccc12)c1ccc(Br)o1,EC50,[11],0.982 µM (active)
same,EC50,[12],> 350 µM (not active)
same,IC50,[13],9.35 µM (active)
same,EC50,[14],37.3 µM (active)
same,EC50,[15],2.83 µM (active)
same,IC50,[16],> 119 µM (inactive)
same,CC50,[17],0.493 µM (active)
same,CC50,[18],5.73 µM (active)
same,CC50,[19],2.71 µM (active)
same,IC50,[20],> 80 µM (inactive)
same,IC50,[21],> 119 µM (inactive)
same,AC50,[22],6.22 µM (active)
same,AC50,[23],0.779 µM (active)
